Laboratory results reported in the supplement of paper PMC4862054.

Assays:
Test in all cases: normalised viability (% of control), CellTiter-Blue; higher = more viable cells (about 100 = DMSO control)
Details in all cases: incubation time: 72 h
[1] = test system: HDQ-P1
Method in brief: (§1)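 Each value is normalised viability at a single listed concentration of the series. Breast cancer cell lines in 384-well plates were incubated 72 h with compound and read by CellTiter-Blue fluorescence at 560/590 nm, with vehicle set to 100 and a positive kill control to 0 on every plate.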

[2] = test system: CAL-148
Method in brief: as §1

[3] = test system: MDA-MB-436
Method in brief: as §1

[4] = test system: SK-BR-3
Method in brief: as §1

[5] = test system: BT-474
Method in brief: as §1

[6] = test system: BT-549
Method in brief: as §1

[7] = test system: MDA-MB-453
Method in brief: as §1

[8] = test system: HCC1143
Method in brief: as §1

[9] = test system: HCC1599
Method in brief: as §1

Cn1cc(C2=C(c3cn(C4CCN(Cc5ccccn5)CC4)c4ccccc34)C(=O)NC2=O)c2ccccc21 [Enzastaurin]
normalised viability [%]
Details	[1]	[2]	[3]	[4]	[5]	[6]	[7]	[8]	[9]
3 nM	113	78.6	–	–	–	–	107	–	–
10 nM	–	–	127	99.8	104	92.4	–	76.8	101
30 nM	107	80.2	–	–	–	–	93.7	–	–
100 nM	89.3	78.5	–	–	–	–	87.8	–	–
1000 nM	–	–	56.1	63.4	92.7	68.9	–	64.8	93.2
10000 nM	–	–	57.8	37	67	48.1	–	61.5	82.4

CC(C)(C)NC(=O)[C@H]1CC[C@H]2[C@@H]3CC[C@H]4NC(=O)C=C[C@]4(C)[C@H]3CC[C@]12C [Finasteride]
normalised viability [%]
Details	[1]	[2]	[3]	[4]	[5]	[6]	[7]	[8]	[9]
3 nM	121	95.1	–	–	–	–	117	–	–
10 nM	–	–	91	110	125	89.8	–	102	97.1
30 nM	116	96.8	–	–	–	–	98.2	–	–
100 nM	130	102	–	–	–	–	112	–	–
1000 nM	–	–	97.8	107	111	99	–	96.8	114
10000 nM	–	–	96.3	102	125	98.5	–	106	83.4

C=CCn1c(=O)c2cnc(Nc3ccc(N4CCN(C)CC4)cc3)nc2n1-c1cccc(C(C)(C)O)n1 [MK1775]
normalised viability [%]
Details	[1]	[2]	[3]	[4]	[5]	[6]	[7]	[8]	[9]
3 nM	92.9	85.1	–	–	–	–	89.6	–	–
10 nM	–	–	113	79.8	94	103	–	109	86.4
30 nM	98.5	92.8	–	–	–	–	86.3	–	–
100 nM	94.4	81.5	–	–	–	–	88.7	–	–
1000 nM	–	–	37	9.36	33.9	31	–	55.7	59
10000 nM	–	–	21.4	10.2	35.7	9.32	–	23.7	45.3

CC(O)(CS(=O)(=O)c1ccc(F)cc1)C(=O)Nc1ccc(C#N)c(C(F)(F)F)c1 (stereo unspecified) [Bicalutamide]
normalised viability [%]
Details	[1]	[2]	[3]	[4]	[5]	[6]	[7]	[8]	[9]
3 nM	86.9	101	–	–	–	–	114	–	–
10 nM	–	–	90	104	119	87	–	94.8	98.3
30 nM	110	100	–	–	–	–	89.2	–	–
100 nM	118	102	–	–	–	–	95.9	–	–
1000 nM	–	–	96.2	107	109	94.3	–	105	93.6
10000 nM	–	–	96.7	114	138	87.2	–	92.7	109

COc1ccc(S(=O)(=O)Nc2cccnc2Nc2ccc(O)cc2)cc1 [ABT-751]
normalised viability [%]
Details	[1]	[2]	[3]	[4]	[5]	[6]	[7]	[8]	[9]
3 nM	91.2	91.9	–	–	–	–	105	–	–
10 nM	–	–	86	93.3	112	94.1	–	83.8	112
30 nM	102	89.2	–	–	–	–	81.8	–	–
100 nM	107	86.7	–	–	–	–	67.9	–	–
1000 nM	–	–	48.3	16.9	60.7	77.2	–	56.1	85.6
10000 nM	–	–	21.4	15.6	54	13.6	–	29.1	40.4

COc1cc(Nc2c(C#N)cnc3cc(OCCCN4CCN(C)CC4)c(OC)cc23)c(Cl)cc1Cl [Bosutinib]
normalised viability [%]
Details	[1]	[2]	[3]	[4]	[5]	[6]	[7]	[8]	[9]
3 nM	109	77.2	–	–	–	–	120	–	–
10 nM	–	–	111	99	113	91.9	–	83.8	131
30 nM	121	92.3	–	–	–	–	107	–	–
100 nM	104	87.6	–	–	–	–	105	–	–
1000 nM	–	–	95	86.3	94.6	95.4	–	73	93.3
10000 nM	–	–	16.8	1.28	6.35	6.38	–	48.9	51.7

CN(Cc1cnc2nc(N)nc(N)c2n1)c1ccc(C(=O)N[C@@H](CCC(=O)O)C(=O)O)cc1 [Methotrexate]
normalised viability [%]
Details	[1]	[2]	[3]	[4]	[5]	[6]	[7]	[8]	[9]
3 nM	108	99.8	–	–	–	–	108	–	–
10 nM	–	–	111	95.9	115	91.4	–	87.8	102
30 nM	95.5	91.5	–	–	–	–	102	–	–
100 nM	96	67.3	–	–	–	–	90.7	–	–
1000 nM	–	–	64.4	52	118	78.6	–	68.9	75.6
10000 nM	–	–	93.6	52.8	128	95.7	–	65.4	103

Cc1cc(Nc2nc(N[C@@H](C)c3ncc(F)cn3)ncc2Cl)[nH]n1 [AZD1480]
normalised viability [%]
Details	[1]	[2]	[3]	[4]	[5]	[6]	[7]	[8]	[9]
0.3 nM	106	93.8	–	–	–	–	120	–	–
1 nM	–	–	109	108	137	91.7	–	96	96
3 nM	108	97.4	–	–	–	–	95.6	–	–
10 nM	107	99.3	–	–	–	–	110	–	–
100 nM	–	–	96.4	126	108	108	–	102	96.6
1000 nM	–	–	125	102	112	90.4	–	71.8	74.6
